The NIST ThermoML archive (doi:10.1021/je050327l)
Numbers after ± are expanded uncertainties. One block for each compound: values may come before it.

Conditions: Liquid, Ebulliometric method (Recirculating still)

- vapor or sublimation pressure (373.1 K): 5.529 ± 0.11 kPa
- vapor or sublimation pressure (423.15 K): 39.18 ± 0.2 kPa
SMILES: Oc1ccccc1 [phenol]

- vapor or sublimation pressure (373.1 K): 23.38 ± 0.23 kPa
- vapor or sublimation pressure (413.15 K): 96.29 ± 0.45 kPa
SMILES: CCC(=O)O [propanoic acid]

- vapor or sublimation pressure (373.1 K): 3.056 ± 0.084 kPa
- vapor or sublimation pressure (423.15 K): 20.97 ± 0.14 kPa
SMILES: CC(C=O)c1ccccc1 (stereo unspecified) [2-phenylpropanal]

Continued, compound first:

SMILES: COC [dimethyl ether]
- vapor or sublimation pressure (253.05 K): 125 ± 1.1 kPa
- vapor or sublimation pressure (293.15 K): 508.1 ± 2.2 kPa

SMILES: C=CC [propene]
- vapor or sublimation pressure (253.05 K): 307.2 ± 2.2 kPa
- vapor or sublimation pressure (293.15 K): 1015.9 ± 4.4 kPa

SMILES: CC[N+](=O)[O-] [nitroethane]
- vapor or sublimation pressure (313.15 K): 6.097 ± 0.11 kPa
- vapor or sublimation pressure (353.15 K): 33.11 ± 0.18 kPa

SMILES: CCCC(=O)O [butanoic acid]
- vapor or sublimation pressure (373.1 K): 9.38 ± 0.13 kPa
- vapor or sublimation pressure (413.15 K): 45.85 ± 0.23 kPa

SMILES: COCC(C)O (stereo unspecified) [1-methoxy-2-propanol]
- vapor or sublimation pressure (313.15 K): 3.614 ± 0.093 kPa
- vapor or sublimation pressure (353.15 K): 24.18 ± 0.15 kPa
